This note sets out measurements from US7851637B2, “Compounds and methods for inhibiting the interaction of BCL proteins with binding partners” (Infinity Pharmaceuticals, Inc., priority 2004, dated 2010).

The target of assay [1] is Bcl-2 (Homo sapiens, UniProt P10415). The experiment in a line: Bcl-2 binding affinity analysis (fluorescence polarization binding assay). Put shortly:
(§1)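 In vitro measurement of compound binding to each protein by fluorescence polarization, described as sensitive and quantitative.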
On the technique in general: In fluorescence polarisation assays a small probe gives low polarisation when free and higher when bound to something large.

In assay [2] the test system is RL Human Follicular Lymphoma Cell Line. As to the kind of experiment: Alamar blue cytotoxicity assay in RL cells. To be noted: 72 h incubation, read-out: Bcl RL Alamar Blue IC50. It counts as cell-based. How it is done:
When RL-cells are exposed to isoxazolidine compounds of the present invention, the inhibitors show a dose-dependent cell-killing in the Alamar blue cytoxicity assay with IC50 values of from about 100 μM to about 1 μM (See Examples). When Panc1 cells are exposed to the isoxazolidine compounds of the present invention in combination with camptothecin, the inhibitors show a synergistic dose-dependent cell killing in the propidium iodide exclusion cell survival assay with IC50 values of from about 100 μM to about 1 μM (See Examples).
• 1) Using 96 well plates, compounds were serially diluted in DMSO from 9 mM to 4 uM • 2) Assay plates were prepared by diluting samples 310 fold into 150 ul of medium containing 30,000 cells/well resulting in a final DMSO concentration of 0.3% and a concentration range from 29 uM to 0.013 uM for each compound. • 3) Plates were incubated at 37 C and 5% CO2 for 72 h • 4) After 72 h, Alamar blue reagent was added to each well and plates read according to manufacturer's instructions
In vitro cytotoxicity data for RL cells is presented below for various compounds of the invention.
Background: Resazurin is reduced to fluorescent resorufin, in cell work by metabolically active cells.

Assay [3] has as its target Bcl-xL (Homo sapiens, UniProt Q07817). As to the kind of experiment: Bcl-xL binding affinity analysis (fluorescence polarization binding assay). Further details: scale not given here. The gist of the method:
as §1

Molecules are shown by their SMILES. Like-named read-outs stand apart in the source and are kept apart here.

Bcl-xL, sequence (Q07817 whole entry): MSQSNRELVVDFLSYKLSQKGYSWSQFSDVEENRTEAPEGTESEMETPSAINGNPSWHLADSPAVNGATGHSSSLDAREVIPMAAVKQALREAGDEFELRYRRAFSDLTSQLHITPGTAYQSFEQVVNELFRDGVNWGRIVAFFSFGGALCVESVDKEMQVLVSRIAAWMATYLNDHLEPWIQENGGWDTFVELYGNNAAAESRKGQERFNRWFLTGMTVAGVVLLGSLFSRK
Bcl-2, sequence (P10415 whole entry): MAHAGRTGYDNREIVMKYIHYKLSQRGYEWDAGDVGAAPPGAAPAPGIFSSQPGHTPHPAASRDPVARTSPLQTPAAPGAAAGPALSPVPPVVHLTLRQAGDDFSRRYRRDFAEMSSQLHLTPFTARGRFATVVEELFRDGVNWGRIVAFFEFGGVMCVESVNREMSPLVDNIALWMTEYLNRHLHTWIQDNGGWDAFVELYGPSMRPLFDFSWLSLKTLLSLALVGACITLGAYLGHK

On to `CC(O)C1C(CO)ON(Cc2cccc(CN3CCN(C)CC3)c2)C1C(=O)NC1CC2CC(C1C)C2(C)C` (stereo not shown) [Compound 447], for which the Ki (in general, a measure of affinity in units of concentration, obtained from inhibition or displacement) in assay [1] is less than 0.8 µM. Also, in assay [2] (Homo sapiens), the IC50 (commonly the concentration at which inhibition is half-maximal) was more than 5 µM. Besides, in assay [3], the “Bcl-XL binding affinity Ki” value was “♯”.
In the same order, the values of `CC(C)CC(CN(C)C)N(Cc1cccc(CN2OC(CO)C(C(C)O)C2C(=O)NC2CC3CC(C2C)C3(C)C)c1)Cc1ccc(F)cc1C(F)(F)F` (stereo not shown) [Compound 323] are less than 0.8 µM, more than 5 µM and “♯”.
On to `CC(O)C1C(CO)ON(Cc2cccc(CN3CCN(C)CC3c3ccccc3)c2)C1C(=O)NC1CC2CC(C1C)C2(C)C` (stereo not shown) [Compound 473], for which the inhibition constant (Ki) in assay [1] was less than 0.8 µM. Moreover, in assay [2] (Homo sapiens), the IC50 was more than 5 µM. The “Bcl-XL binding affinity Ki” value in assay [3] is recorded as “♯”.
On to `C[C@@H]1[C@@H](NC(=O)[C@@H]2C([C@H](C)O)[C@H](CO)ON2Cc2cccc(CN(Cc3ccccc3)[C@@H]3CCN(C)C3)c2)C[C@H]2C[C@@H]1C2(C)C` (stereo partly shown) [Compound 432], for which the Ki in assay [1] is less than 0.8 µM. Besides, the IC50 in assay [2] (Homo sapiens) is less than 2 µM. Besides, the “Bcl-XL binding affinity Ki” value in assay [3] is reported as “♯”.
In the same order, the values of `C[C@@H]1[C@@H](NC(=O)[C@@H]2[C@H]([C@H](C)O)[C@H](CO)ON2Cc2cccc(NC(=O)N(C)[C@@H](CC3CCCCC3)CN(C)C)c2)C[C@H]2C[C@@H]1C2(C)C` [Compound 575] are less than 0.8 µM, 2 to 5 µM and “♯”.
In the same order, the values of `COc1c(CN2O[C@@H](CO)[C@@H]([C@H](C)O)[C@H]2C(=O)N[C@H]2C[C@H]3C[C@@H]([C@@H]2C)C3(C)C)cccc1-c1cccc(C(=O)N[C@H](CN(C)C)c2ccccc2)c1` [Compound 491] are less than 0.8 µM, 2 to 5 µM and “♯”.
In the same order, the values of `CC(C)C[C@H](CN(C)C)NC(=O)Nc1cccc(CN2O[C@@H](CO)[C@@H]([C@H](C)O)[C@H]2C(=O)NC2C[C@H]3C[C@@H]([C@@H]2C)C3(C)C)c1` (stereo partly shown) [Compound 562] are less than 0.8 µM, more than 5 µM and “♯”.
The molecule `COc1c(CN2O[C@@H](CO)[C@@H]([C@H](C)O)[C@H]2C(=O)N[C@H]2C[C@H]3C[C@@H]([C@@H]2C)C3(C)C)cccc1-c1cccc(C(=O)N[C@@H](Cc2ccccc2)CN(C)C)c1` [Compound 477] gave a Ki in assay [1] of less than 0.8 µM. Moreover, in assay [2] (Homo sapiens), the IC50 is less than 2 µM. Further, in assay [3], the “Bcl-XL binding affinity Ki” value was “♯”.
In the same order, the values of `CC(O)C1C(CO)ON(Cc2cccc(NC(=O)NC(CCc3ccccc3)CN(C)C)c2)C1C(=O)NC1CC2CC(C1C)C2(C)C` (stereo not shown) [Compound 572] are less than 0.8 µM, 2 to 5 µM and “♯”.
In the same order, the values of `CC(O)C1C(CO)ON(Cc2cccc(CN(CCN(C)C)Cc3cccc(Oc4ccccc4)c3)c2)C1C(=O)NC1CC2CC(C1C)C2(C)C` (stereo not shown) [Compound 374] are less than 0.8 µM, 2 to 5 µM and “♯”.
Take `COc1c(CN2O[C@@H](CO)[C@@H]([C@H](C)O)[C@H]2C(=O)N[C@H]2C[C@H]3C[C@@H]([C@@H]2C)C3(C)C)cccc1-c1cccc(C(=O)N[C@H](CCc2ccccc2)CN(C)C)c1` [Compound 482]: in assay [1], the Ki was less than 0.8 µM. The IC50 in assay [2] (Homo sapiens) is less than 2 µM. Also, the “Bcl-XL binding affinity Ki” value in assay [3] is “♯”.
With `CC(O)C1C(CO)ON(Cc2cccc(CN(CCN(C)C)Cc3cccc(OC(F)(F)F)c3)c2)C1C(=O)NC1CC2CC(C1C)C2(C)C` (stereo not shown) [Compound 367], the Ki in assay [1] was less than 0.8 µM. Further, the IC50 in assay [2] (Homo sapiens) was 2 to 5 µM. Also, in assay [3], the “Bcl-XL binding affinity Ki” value is given as “♯”.
For the molecule `CC(O)C1C(CO)ON(Cc2cccc(NC(=O)NC(CCc3ccccc3)CN(C)C)c2)C1C(=O)NC1CC2CC(C1C)C2(C)C` (stereo not shown) [Compound 573], the Ki in assay [1] was less than 0.8 µM. Also, the IC50 in assay [2] lay in the range of 2 to 5 µM. Besides, the “Bcl-XL binding affinity Ki” value in assay [3] is recorded as “♯”.
`C[C@@H]1[C@@H](NC(=O)[C@@H]2[C@H]([C@H](C)O)[C@H](CO)ON2Cc2cccc(N(CCCN(C)C)CC3CCCCC3)c2)C[C@H]2C[C@@H]1C2(C)C` [Compound 586] came in with a Ki in assay [1] of less than 0.8 µM. For the same molecule, in assay [2] (Homo sapiens), the IC50 lay within 2 to 5 µM. Besides, in assay [3], the “Bcl-XL binding affinity Ki” value is recorded as “♯”.
In assay [1], `CC(O)C1C(CO)ON(Cc2cccc(C(=O)NC(Cc3ccccc3)CN(C)C)c2)C1C(=O)NC1CC2CC(C1C)C2(C)C` (stereo not shown) [Compound 507] returned a Ki of less than 0.8 µM. The IC50 in assay [2] (Homo sapiens) is more than 5 µM. Moreover, in assay [3], the “Bcl-XL binding affinity Ki” value was “♯”.
Consider `CC(O)C1C(CO)ON(Cc2cccc(CN3C(CN(C)C)CC4CCCCC43)c2)C1C(=O)NC1CC2CC(C1C)C2(C)C` (stereo not shown) [Compound 466], for which the Ki in assay [1] was less than 0.8 µM. Moreover, the IC50 in assay [2] (Homo sapiens) was more than 5 µM. In addition, the “Bcl-XL binding affinity Ki” value in assay [3] is “♯”.
In the same order, the values of `CCc1ccccc1CN(CCN(C)C)Cc1cccc(CN2OC(CO)C(C(C)O)C2C(=O)NC2CC3CC(C2C)C3(C)C)c1` (stereo not shown) [Compound 349] are less than 0.8 µM, less than 2 µM and “♯”.
In the same order, the values of `CC(O)C1C(CO)ON(Cc2cccc(CNCC3CCCN3C(=O)OCc3ccccc3)c2)C1C(=O)NC1CC2CC(C1C)C2(C)C` (stereo not shown) [Compound 474] are less than 0.8 µM, 2 to 5 µM and “♯”.
Molecule `C[C@@H]1[C@@H](NC(=O)[C@@H]2C([C@H](C)O)[C@H](CO)ON2Cc2cccc(CN(CCN(C)C)Cc3ccccc3OC(F)(F)F)c2)C[C@H]2C[C@@H]1C2(C)C` (stereo partly shown) [Compound 365] displayed a Ki in assay [1] of less than 0.8 µM. The IC50 in assay [2] (Homo sapiens) is less than 2 µM. For the same molecule, the “Bcl-XL binding affinity Ki” value in assay [3] is recorded as “♯”.
In the same order, the values of `CC(O)C1C(CO)ON(Cc2cccc(CN3c4ccccc4CC3CN(C)C)c2)C1C(=O)NC1CC2CC(C1C)C2(C)C` (stereo not shown) [Compound 465] are less than 0.8 µM, more than 5 µM and “♯”.
On to `CC(O)C1C(CO)ON(Cc2cccc(CN(CCN(C)C)Cc3c(Cl)cccc3Cl)c2)C1C(=O)NC1CC2CC(C1C)C2(C)C` (stereo not shown) [Compound 373], for which, in assay [1], the inhibition constant (Ki) was less than 0.8 µM. Also, the IC50 in assay [2] (Homo sapiens) was 2 to 5 µM. Also, the “Bcl-XL binding affinity Ki” value in assay [3] was “♯”.
With `CC(C)CN(CCN(C)C)Cc1cccc(CN2OC(CO)C(C(C)O)C2C(=O)NC2CC3CC(C2C)C3(C)C)c1` (stereo not shown) [Compound 379], the Ki in assay [1] was less than 0.8 µM. The IC50 in assay [2] (Homo sapiens) is more than 5 µM. In assay [3], the “Bcl-XL binding affinity Ki” value is “♯”.
In the same order, the values of `CC(O)C1C(CO)ON(Cc2cccc(CN(CCN(C)C)Cc3ccccc3F)c2)C1C(=O)NC1CC2CC(C1C)C2(C)C` (stereo not shown) [Compound 352] are less than 0.8 µM, 2 to 5 µM and “♯”.
In turn, `C[C@@H]1[C@@H](NC(=O)[C@@H]2[C@H]([C@H](C)O)[C@H](CO)ON2Cc2cccc(NC(=O)N[C@H](Cc3ccccc3)CN(C)C)c2)C[C@H]2C[C@@H]1C2(C)C` [Compound 571] came in with a Ki in assay [1] of less than 0.8 µM. In assay [2] (Homo sapiens), the 50% inhibitory concentration (IC50) was more than 5 µM. Moreover, the “Bcl-XL binding affinity Ki” value in assay [3] is listed as “♯”.
For `CC(O)C1C(CO)ON(Cc2cccc(CN(Cc3ccccc3)C(CC3CCCCC3)CN(C)C)c2)C1C(=O)NC1CC2CC(C1C)C2(C)C` (stereo not shown) [Compound 437], in assay [1], the Ki is less than 0.8 µM. Further, in assay [2] (Homo sapiens), the IC50 was more than 5 µM. Also, the “Bcl-XL binding affinity Ki” value in assay [3] is “♯”.
`COc1cc(CN(CCN(C)C)Cc2cccc(CN3OC(CO)C(C(C)O)C3C(=O)NC3CC4CC(C3C)C4(C)C)c2)cc(OC)c1` (stereo not shown) [Compound 404]: the Ki in assay [1] was less than 0.8 µM. In addition, the IC50 in assay [2] (Homo sapiens) lay in the range of 2 to 5 µM. The “Bcl-XL binding affinity Ki” value in assay [3] is “♯”.
In the same order, the values of `CC(O)C1C(CO)ON(Cc2cccc(CN(CCN(C)C)Cc3ccc(-c4ccccc4)cc3)c2)C1C(=O)NC1CC2CC(C1C)C2(C)C` (stereo not shown) [Compound 400] are less than 0.8 µM, less than 2 µM and “♯”.
In the same order, the values of `C[C@@H]1[C@@H](NC(=O)[C@@H]2[C@H]([C@H](C)O)[C@H](CO)ON2Cc2cccc(NC(=O)N(C)[C@H](CC3CCCCC3)CN(C)C)c2)C[C@H]2C[C@@H]1C2(C)C` [Compound 576] are less than 0.8 µM, 2 to 5 µM and “♯”.
Regarding `Cc1ccc(CN(CCN(C)C)Cc2cccc(CN3OC(CO)C(C(C)O)C3C(=O)NC3CC4CC(C3C)C4(C)C)c2)cc1` (stereo not shown) [Compound 386], the Ki in assay [1] is less than 0.8 µM. In addition, the IC50 in assay [2] (Homo sapiens) lay in the range of 2 to 5 µM. Moreover, the “Bcl-XL binding affinity Ki” value in assay [3] was “♯”.
In the same order, the values of `CC(C)C(CN(C)C)NC(=O)c1cccc(CN2OC(CO)C(C(C)O)C2C(=O)NC2CC3CC(C2C)C3(C)C)c1` (stereo not shown) [Compound 502] are less than 0.8 µM, more than 5 µM and “♯”.
Turning to `CC(O)C1C(CO)ON(Cc2cccc(CN(CCN(C)C)Cc3cccc(C(F)(F)F)c3)c2)C1C(=O)NC1CC2CC(C1C)C2(C)C` (stereo not shown) [Compound 398], the Ki in assay [1] was less than 0.8 µM. Further, the IC50 in assay [2] (Homo sapiens) is more than 5 µM. Also, the “Bcl-XL binding affinity Ki” value in assay [3] is on record as “♯”.
Regarding `COC(=O)CCNC(=O)c1cccc(-c2cccc(CN3O[C@@H](CO)[C@@H]([C@H](C)O)[C@H]3C(=O)N[C@H]3C[C@H]4C[C@@H]([C@@H]3C)C4(C)C)c2)c1` [Compound 190], the IC50 in assay [2] (Homo sapiens) was 2 to 5 µM.
